Where two headings read alike, the source gives them in different places.
How the values were obtained:
[1] = tested on: phosphorylation of AKT on Ser473 (PI3K pathway) in SKBR3 (PIK3CA WT) cell line; assay: PI3K pathway activation assay (pAKT Ser473 HTRF), SKBR3 cells; format: cell-based; conditions: Homo sapiens, SK-BR-3, 2 h, two hours of treatment
Procedure: (§1) The inhibitory activity of the compounds of the disclosure was evaluated by measuring phosphorylation of AKT on Ser473 as a readout of the PI3K pathway using HTRF (CisBio catalog number: 64AKSPE). These studies were conducted in the T-47D (heterozygous PIK3CA H1047R) and SKBR3 (PIK3CA WT) cell lines. Cells were maintained in a 37° C. incubator at 5% CO2 in the following media: T-47D: RPMI 1640, ATCC© Modification (Gibco, A10491-01) supplemented with 10% v/v FBS (Gibco, 26140-079), 1% penicillin streptomycin (Gibco, 15140-122), and 7.4 ug/mL insulin (MilliporeSigma, I9278); SKBR3: McCoy's 5a (Modified) Medium (Gibco, 16600-082) supplemented with 10% v/v FBS (Gibco, 26140-079). Cells were seeded in 384-well plates at a density of 4,000 cells/well. Compounds dissolved in DMSO were added using a digital dispense (D300E, Tecan) 10-point serial dilution. After two hours of treatment, cells were lysed for thirty minutes and then incubated with detection reagents per HTRF kit material and manufacturer's instructions. Fluorescence signal was measured with a multimode plate reader (Envision 2105, Perkin Elmer). Fluorescent signal was normalized to background and DMSO controls to obtain percent inhibition/activity for each compound.

[2] = tested on: phosphorylation of AKT on Ser473 (PI3K pathway) in T-47D (heterozygous PIK3CA H1047R) cell line; assay: PI3K pathway activation assay (pAKT Ser473 HTRF), T-47D cells; format: cell-based; conditions: T-47D (heterozygous PIK3CA H1047R) cells, two hours of treatment, pAKT Ser473 HTRF; for IC50: read-out: T47D pAKT IC50
Procedure: as §1

Row | IC50 [1] [nM] | IC50 ([2]; Homo sapiens, T47D, 2 h) [nM] | Compound | also measured
1 | > 10000 | < 100 | Cc1cc(C(C)Nc2ccc(F)nc2C(=O)O)nc(N2C(=O)OC[C@@H]2Cc2ccccc2)c1 (single isomer, unassigned) [Example 11] | –
2 | 1000 to 10000 | – | Cc1cc(C(C)Nc2ccc(Cl)nc2C(=O)O)nc(N2C(=O)OC[C@@H]2Cc2ccccc2)c1 (single isomer, unassigned) [Example 12] | T47D pAKT IC50 [2]: ++ ++
3 | > 10000 | < 100 | Cc1cc(C(C)Nc2ccc(Br)nc2C(=O)O)nc(N2C(=O)OC[C@@H]2Cc2ccccc2)c1 (single isomer, unassigned) [Example 18] | –
4 | > 10000 | < 100 | Cc1cc([C@@H](C)Nc2ccc(Cl)nc2C(=O)O)nc(N2C(=O)OC[C@@H]2Cc2cccc(C)c2F)c1 [Example 20, 6-Chloro-3-(((R)-1-(6-((S)-4-(2-fluoro-3-methylbenzyl)-2-oxooxazolidin-3-yl)-4-methylpyridin-2-yl)ethyl)amino)picolinic acid] | –
5 | 1000 to 10000 | < 100 | Cc1cc([C@@H](C)Nc2ccc(Cl)nc2C(=O)O)nc(N2C(=O)OC[C@@H]2Cc2ccncc2F)c1 [Example 21, 6-Chloro-3-(((R)-1-(6-((S)-4-((3-fluoropyridin-4-yl)methyl)-2-oxooxazolidin-3-yl)-4-methylpyridin-2-yl)ethyl)amino)picolinic acid] | –
6 | > 10000 | < 100 | Cc1cc([C@@H](C)Nc2ccc(Cl)nc2C(=O)O)nc(N2C(=O)OC[C@@H]2Cc2ccc(C(F)(F)F)cc2)c1 [Example 23, 6-Chloro-3-(((R)-1-(4-methyl-6-((S)-2-oxo-4-(4-(trifluoromethyl)benzyl)oxazolidin-3-yl)pyridin-2-yl)ethyl)amino)picolinic acid] | –
7 | > 10000 | < 100 | Cc1cc([C@@H](C)Nc2ccc(Cl)nc2C(=O)O)nc(N2C(=O)OC[C@@H]2Cc2ccc(F)cc2)c1 [Example 24, 6-Chloro-3-(((R)-1-(6-((S)-4-(4-fluorobenzyl)-2-oxooxazolidin-3-yl)-4-methylpyridin-2-yl)ethyl)amino)picolinic acid] | –
8 | – | – | Cc1cc([C@@H](C)Nc2ccc(Cl)nc2C(=O)O)nc(N2C(=O)OC[C@@H]2Cc2ccc3cncn3c2)c1 [Example 41, 6-Chloro-3-(((R)-1-(6-((S)-4-(imidazo[1,5-α]pyridin-6-ylmethyl)-2-oxooxazolidin-3-yl)-4-methylpyridin-2-yl)ethyl)amino)picolinic acid] | IC50 [2]: 100 to 1000 nM
9 | – | < 100 | Cc1cc([C@@H](C)Nc2ccc(Cl)nc2C(=O)O)nc(N2C(=O)OC[C@@H]2Cc2ccc3c(cnn3C)c2)c1 [Example 42, 6-Chloro-3-(((R)-1-(4-methyl-6-((S)-4-((1-methyl-1H-indazol-5-yl)methyl)-2-oxooxazolidin-3-yl)pyridin-2-yl)ethyl)amino)picolinic acid] | –
10 | – | < 100 | Cc1cc([C@@H](C)Nc2ccc(Cl)nc2C(=O)O)nc(N2C(=O)OC[C@@H]2Cc2ccc3nn(C)cc3c2)c1 [Example 43, 6-Chloro-3-(((R)-1-(4-methyl-6-((S)-4-((2-methyl-2H-indazol-5-yl)methyl)-2-oxooxazolidin-3-yl)pyridin-2-yl)ethyl)amino)picolinic acid] | –
11 | – | – | Cc1cc([C@@H](C)Nc2ccc(Cl)nc2C(=O)O)nc(N2C(=O)OC[C@@H]2Cc2cccn3ccnc23)c1 [Example 44, 6-Chloro-3-(((R)-1-(6-((S)-4-(imidazo[1,2-α]pyridin-8-ylmethyl)-2-oxooxazolidin-3-yl)-4-methylpyridin-2-yl)ethyl)amino)picolinic acid] | IC50 [2]: 100 to 1000 nM
12 | – | – | Cc1cc([C@@H](C)Nc2ccc(Cl)nc2C(=O)O)nc(N2C(=O)OC[C@@H]2Cc2cccn3nccc23)c1 [Example 45, 6-Chloro-3-(((R)-1-(4-methyl-6-((S)-2-oxo-4-(pyrazolo[1,5-α]pyridin-4-ylmethyl)oxazolidin-3-yl)pyridin-2-yl)ethyl)amino)picolinic acid] | IC50 [2]: < 100 nM
13 | – | – | Cc1cc([C@@H](C)Nc2ccc(Cl)nc2C(=O)O)nc(N2C(=O)OC[C@@H]2Cc2cnn3ccccc23)c1 [Example 46, 6-Chloro-3-(((R)-1-(4-methyl-6-((S)-2-oxo-4-(pyrazolo[1,5-α]pyridin-3-ylmethyl)oxazolidin-3-yl)pyridin-2-yl)ethyl)amino)picolinic acid] | IC50 [2]: < 100 nM
14 | – | < 100 | Cc1cc([C@@H](C)Nc2ccc(Cl)nc2C(=O)O)nc(N2C(=O)OC[C@@H]2CC2CCC2)c1 [Example 47, 6-Chloro-3-(((R)-1-(6-((S)-4-(cyclobutylmethyl)-2-oxooxazolidin-3-yl)-4-methylpyridin-2-yl)ethyl)amino)picolinic acid] | –
15 | – | 100 to 1000 | Cc1cc([C@@H](C)Nc2ccc(Cl)nc2C(=O)O)nc(N2C(=O)OC[C@@H]2Cc2c[nH]c3ccccc23)c1 [Example 50, 3-(((R)-1-(6-((S)-4-((1H-Indol-3-yl)methyl)-2-oxooxazolidin-3-yl)-4-methylpyridin-2-yl)ethyl)amino)-6-chloropicolinic acid] | –
16 | – | 100 to 1000 | Cc1cc([C@@H](C)Nc2ccc(Cl)nc2C(=O)O)nc(N2C(=O)OC[C@@H]2Cc2ccc(C(=O)N(C)C)cc2)c1 [Example 51, 6-Chloro-3-(((R)-1-(6-((S)-4-(4-(dimethylcarbamoyl)benzyl)-2-oxooxazolidin-3-yl)-4-methylpyridin-2-yl)ethyl)amino)picolinic acid] | –
17 | – | 100 to 1000 | CON(C)C(=O)c1ccc(C[C@H]2COC(=O)N2c2cc(C)cc([C@@H](C)Nc3ccc(Cl)nc3C(=O)O)n2)cc1 [Example 52, 6-Chloro-3-(((R)-1-(6-((S)-4-(4-(methoxy(methyl)carbamoyl)benzyl)-2-oxooxazolidin-3-yl)-4-methylpyridin-2-yl)ethyl)amino)picolinic acid] | –
18 | – | 100 to 1000 | Cc1cc([C@@H](C)Nc2ccc(Cl)nc2C(=O)O)nc(N2C(=O)OC[C@@H]2CCc2ccccc2)c1 [Example 53, 6-Chloro-3-(((R)-1-(4-methyl-6-((S)-2-oxo-4-phenethyloxazolidin-3-yl)pyridin-2-yl)ethyl)amino)picolinic acid] | –
19 | – | 100 to 1000 | Cc1cc([C@@H](C)Nc2ccc(Cl)nc2C(=O)O)nc(N2C(=O)OC[C@]2(C)Cc2ccccc2)c1 [Example 54, 3-(((R)-1-(6-((S)-4-Benzyl-4-methyl-2-oxooxazolidin-3-yl)-4-methylpyridin-2-yl)ethyl)amino)-6-chloropicolinic acid] | –
20 | – | 1000 to 10000 | Cc1cc([C@@H](C)Nc2ccc(Cl)nc2C(=O)O)nc(N2C(=O)CCC2Cc2ccccc2)c1 (stereo partly drawn) [Example 55, 3-(((1R)-1-(6-(2-benzyl-5-oxopyrrolidin-1-yl)-4-methylpyridin-2-yl)ethyl)amino)-6-chloropicolinic acid] | –
21 | – | 100 to 1000 | Cc1cc([C@@H](C)Nc2ccc(Cl)nc2C(=O)O)nc(N2C(=O)OCC[C@@H]2Cc2ccccc2)c1 [Example 56, 3-(((R)-1-(6-((S)-4-Benzyl-2-oxo-1,3-oxazinan-3-yl)-4-methylpyridin-2-yl)ethyl)amino)-6-chloropicolinic acid] | –
22 | – | 100 to 1000 | Cc1cc([C@@H](C)Nc2ccc(Cl)nc2C(=O)O)nc(N2C(=O)COC[C@@H]2Cc2ccccc2)c1 [Example 57, 3-(((R)-1-(6-((S)-3-Benzyl-5-oxomorpholino)-4-methylpyridin-2-yl)ethyl)amino)-6-chloropicolinic acid] | –
23 | – | 100 to 1000 | Cc1cccc(C[C@H]2COC(=O)N2c2cc(F)cc([C@@H](C)Nc3ccc(Cl)nc3C(=O)O)c2)c1 [Example 62, 6-Chloro-3-(((R)-1-(3-fluoro-5-((S)-4-(3-methylbenzyl)-2-oxooxazolidin-3-yl)phenyl)ethyl)amino)picolinic acid] | –
